In series [1] the target is Voltage-gated inwardly rectifying potassium channel KCNH2 (Homo sapiens, UniProt Q12809). Nature of the series: Inhibition of human ERG channel.
Series [2] in a line: Half life in iv dosed rat. Type of series: ADME, organism-based. The note with it: in vivo.
In series [3] the target is T1, Androgen receptor (Homo sapiens, UniProt P10275).
T1 sequence (P10275 whole entry): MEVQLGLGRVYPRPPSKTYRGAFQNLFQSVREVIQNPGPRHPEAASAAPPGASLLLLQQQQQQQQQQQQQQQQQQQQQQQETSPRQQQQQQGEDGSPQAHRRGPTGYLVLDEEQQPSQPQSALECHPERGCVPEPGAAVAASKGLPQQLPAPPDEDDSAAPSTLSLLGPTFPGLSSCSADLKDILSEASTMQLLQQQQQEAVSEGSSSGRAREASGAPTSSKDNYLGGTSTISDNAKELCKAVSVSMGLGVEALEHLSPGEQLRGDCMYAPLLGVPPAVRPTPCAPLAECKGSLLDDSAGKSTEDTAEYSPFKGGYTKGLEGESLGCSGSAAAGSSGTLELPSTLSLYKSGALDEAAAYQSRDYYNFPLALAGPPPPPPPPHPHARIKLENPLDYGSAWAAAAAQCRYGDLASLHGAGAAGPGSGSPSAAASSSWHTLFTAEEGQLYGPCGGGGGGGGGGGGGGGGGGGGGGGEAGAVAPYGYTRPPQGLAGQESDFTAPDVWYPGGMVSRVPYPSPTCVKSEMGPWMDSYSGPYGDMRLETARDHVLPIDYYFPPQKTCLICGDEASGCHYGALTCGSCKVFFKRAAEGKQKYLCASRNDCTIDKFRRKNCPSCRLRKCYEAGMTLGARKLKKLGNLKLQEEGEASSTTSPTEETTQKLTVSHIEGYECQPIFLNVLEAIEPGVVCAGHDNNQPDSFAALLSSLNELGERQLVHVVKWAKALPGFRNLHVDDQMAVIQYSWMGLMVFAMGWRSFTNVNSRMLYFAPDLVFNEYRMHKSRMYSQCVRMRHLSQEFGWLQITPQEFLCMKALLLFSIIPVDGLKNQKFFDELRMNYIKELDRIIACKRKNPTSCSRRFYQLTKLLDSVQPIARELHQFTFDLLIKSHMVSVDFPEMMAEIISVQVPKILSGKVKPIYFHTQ
As to the kind of experiment: Binding affinity to androgen receptor (unknown origin).

The test system of series [4] is Hepatocyte. Nature of the series: Intrinsic clearance in human hepatocytes. The class given is ADME, cell-based.
The target in series [5] is Cytochrome P450 2C9 (Homo sapiens, UniProt P11712). Nature of the series: Inhibition of CYP2C9 (unknown origin). The class given is ADME.
The nature of series [6]: Lipophilicity, log D of the compound at pH 7.4. Type of series: physicochemical. Particulars: buffer.
For series [7], the system named is Hepatocyte. Nature of the series: Intrinsic clearance in rat hepatocytes. The class given is ADME, cell-based.

The structures appear in SMILES notation.

One may read the IC50 as the midpoint of a concentration-inhibition curve. One may read the half-life as the time needed for the level to fall by half in the phase considered. Low values mean rapid decline, high ones slow decline. As usually defined, the logD is lipophilicity at a set pH, counting ionised and neutral species.

Sequence of Cytochrome P450 2C9 (P11712 whole entry): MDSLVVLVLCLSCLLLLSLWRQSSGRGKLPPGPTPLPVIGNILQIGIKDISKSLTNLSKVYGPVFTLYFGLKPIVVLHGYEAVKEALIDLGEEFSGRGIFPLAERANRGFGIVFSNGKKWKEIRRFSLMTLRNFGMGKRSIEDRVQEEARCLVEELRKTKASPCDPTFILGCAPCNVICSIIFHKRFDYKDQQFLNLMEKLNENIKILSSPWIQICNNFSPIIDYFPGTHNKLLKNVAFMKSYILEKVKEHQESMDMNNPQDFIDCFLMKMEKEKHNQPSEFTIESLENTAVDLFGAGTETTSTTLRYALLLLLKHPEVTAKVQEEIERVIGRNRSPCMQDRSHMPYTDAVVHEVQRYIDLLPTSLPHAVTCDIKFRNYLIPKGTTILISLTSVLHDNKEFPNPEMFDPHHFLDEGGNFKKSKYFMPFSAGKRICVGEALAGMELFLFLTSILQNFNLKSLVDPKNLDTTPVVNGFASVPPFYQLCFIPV
Sequence of Voltage-gated inwardly rectifying potassium channel KCNH2 (Q12809 whole entry): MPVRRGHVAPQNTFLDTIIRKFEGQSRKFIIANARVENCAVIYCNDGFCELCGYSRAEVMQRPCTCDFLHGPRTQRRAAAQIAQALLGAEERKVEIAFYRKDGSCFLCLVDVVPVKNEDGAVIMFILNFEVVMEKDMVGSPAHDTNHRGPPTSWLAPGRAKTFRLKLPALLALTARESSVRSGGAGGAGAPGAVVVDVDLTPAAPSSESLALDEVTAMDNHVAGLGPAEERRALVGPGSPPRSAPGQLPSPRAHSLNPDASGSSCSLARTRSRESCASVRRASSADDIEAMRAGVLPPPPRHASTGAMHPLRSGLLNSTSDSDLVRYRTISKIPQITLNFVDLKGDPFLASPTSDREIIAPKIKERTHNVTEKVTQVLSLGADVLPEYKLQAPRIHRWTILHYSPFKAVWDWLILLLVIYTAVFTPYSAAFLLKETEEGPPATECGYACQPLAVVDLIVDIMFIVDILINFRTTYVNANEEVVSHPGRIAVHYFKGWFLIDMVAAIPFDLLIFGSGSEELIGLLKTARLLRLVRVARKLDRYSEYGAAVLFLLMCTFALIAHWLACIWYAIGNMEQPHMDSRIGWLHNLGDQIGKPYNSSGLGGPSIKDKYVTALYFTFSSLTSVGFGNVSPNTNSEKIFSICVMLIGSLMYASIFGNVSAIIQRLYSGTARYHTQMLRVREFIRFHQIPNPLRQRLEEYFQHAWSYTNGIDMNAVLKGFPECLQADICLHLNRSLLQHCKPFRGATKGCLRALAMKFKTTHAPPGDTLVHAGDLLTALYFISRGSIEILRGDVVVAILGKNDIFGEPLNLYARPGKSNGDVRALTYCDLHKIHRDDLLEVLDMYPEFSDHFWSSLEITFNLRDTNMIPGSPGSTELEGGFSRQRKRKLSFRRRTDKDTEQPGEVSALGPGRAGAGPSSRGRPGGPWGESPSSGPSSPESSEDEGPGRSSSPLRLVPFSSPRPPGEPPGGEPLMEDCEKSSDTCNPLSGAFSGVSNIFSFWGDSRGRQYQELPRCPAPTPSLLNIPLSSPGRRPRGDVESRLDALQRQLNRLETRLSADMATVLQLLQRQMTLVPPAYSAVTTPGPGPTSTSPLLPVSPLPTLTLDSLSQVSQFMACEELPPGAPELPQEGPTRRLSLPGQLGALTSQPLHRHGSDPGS

Consider `Cc1nn(C2CCCC2)c(C)c1S(=O)(=O)N[C@@H](C)CNc1cccc2c1cnn2-c1ccc(F)nc1`, for which the concentration for half-maximal inhibition (IC50) was 8.7 µM in series [1], more than 1000 nM in series [3] and 17 µM in series [5]. The compound further had a half-life in series [2] of 384 min. Moreover, the CLH in series [4] was determined as 47 µL/min; in series [7], 33 µL/min. Besides, the logD in series [6] was determined as 3.7.

Source of the values: ChEMBL document CHEMBL3259563, “The discovery of potent and selective non-steroidal glucocorticoid receptor modulators, suitable for inhalation” (Bioorg Med Chem Lett, 2014).
